Tests used:
Assay in all cases: KINOMEscan (ScanMAX) kinase profiling
Format in all cases: binding
panel of 468 kinases [1] = biological target: T1, panel of 468 kinases (Homo sapiens, UniProt P25098); conditions: GRK2; 1 μM; read-out: % control
T1 construct: purchased KINOMEscan (ScanMAX) service
T1 sequence (P25098 1-689): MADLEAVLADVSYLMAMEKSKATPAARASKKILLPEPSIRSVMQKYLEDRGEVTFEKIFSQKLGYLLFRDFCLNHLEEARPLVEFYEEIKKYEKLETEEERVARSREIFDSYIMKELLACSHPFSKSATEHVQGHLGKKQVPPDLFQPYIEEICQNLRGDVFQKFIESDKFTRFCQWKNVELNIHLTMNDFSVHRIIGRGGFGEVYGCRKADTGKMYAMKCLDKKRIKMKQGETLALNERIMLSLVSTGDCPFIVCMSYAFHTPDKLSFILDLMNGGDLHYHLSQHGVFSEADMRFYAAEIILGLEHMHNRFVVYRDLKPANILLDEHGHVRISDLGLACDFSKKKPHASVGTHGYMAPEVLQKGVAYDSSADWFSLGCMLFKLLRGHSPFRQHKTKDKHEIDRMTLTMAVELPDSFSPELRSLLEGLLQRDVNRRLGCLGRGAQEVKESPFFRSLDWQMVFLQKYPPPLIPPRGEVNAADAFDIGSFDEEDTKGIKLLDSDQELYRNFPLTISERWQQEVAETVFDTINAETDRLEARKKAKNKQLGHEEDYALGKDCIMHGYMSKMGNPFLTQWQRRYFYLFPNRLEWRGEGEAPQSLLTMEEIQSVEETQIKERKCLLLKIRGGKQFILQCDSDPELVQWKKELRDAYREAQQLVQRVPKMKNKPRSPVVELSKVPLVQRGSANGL

panel of 468 kinases [2] = biological target: T2, panel of 468 kinases (Homo sapiens, UniProt O76039); conditions: CDKL5; 1 μM; read-out: % control
T2 construct: purchased KINOMEscan (ScanMAX) service
T2 sequence (O76039 1-960): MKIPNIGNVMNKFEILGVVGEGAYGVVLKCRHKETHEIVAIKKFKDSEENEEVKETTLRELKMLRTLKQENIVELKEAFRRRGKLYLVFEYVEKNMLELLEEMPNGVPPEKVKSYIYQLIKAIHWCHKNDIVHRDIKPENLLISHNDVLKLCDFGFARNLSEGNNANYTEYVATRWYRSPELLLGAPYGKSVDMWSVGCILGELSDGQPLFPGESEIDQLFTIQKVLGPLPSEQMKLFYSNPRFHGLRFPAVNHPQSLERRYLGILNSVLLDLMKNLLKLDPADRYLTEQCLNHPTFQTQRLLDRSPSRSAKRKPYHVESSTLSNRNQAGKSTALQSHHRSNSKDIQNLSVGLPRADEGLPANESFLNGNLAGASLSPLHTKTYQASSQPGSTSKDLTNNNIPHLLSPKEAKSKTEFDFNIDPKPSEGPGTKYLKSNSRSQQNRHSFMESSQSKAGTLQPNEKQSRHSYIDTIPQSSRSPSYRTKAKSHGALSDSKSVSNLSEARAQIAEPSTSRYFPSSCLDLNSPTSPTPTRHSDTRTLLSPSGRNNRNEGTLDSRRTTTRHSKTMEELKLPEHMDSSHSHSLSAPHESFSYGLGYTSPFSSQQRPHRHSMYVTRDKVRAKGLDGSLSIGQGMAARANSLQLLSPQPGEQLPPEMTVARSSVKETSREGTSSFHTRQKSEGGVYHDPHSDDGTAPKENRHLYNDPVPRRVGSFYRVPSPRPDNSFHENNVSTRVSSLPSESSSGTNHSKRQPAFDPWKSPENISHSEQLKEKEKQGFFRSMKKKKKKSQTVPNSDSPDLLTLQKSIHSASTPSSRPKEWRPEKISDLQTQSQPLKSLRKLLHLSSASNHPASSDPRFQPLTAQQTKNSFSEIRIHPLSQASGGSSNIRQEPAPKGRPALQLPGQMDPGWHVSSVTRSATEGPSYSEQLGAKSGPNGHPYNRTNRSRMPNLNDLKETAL

panel of 468 kinases [3] = biological target: T3, panel of 468 kinases (Homo sapiens, UniProt P22607); conditions: FGFR3; 1 μM; read-out: % control
T3 construct: purchased KINOMEscan (ScanMAX) service

panel of 468 kinases [4] = biological target: T4, panel of 468 kinases (Homo sapiens, UniProt P36897); conditions: TGFBR1; 1 μM; read-out: % control
T4 construct: purchased KINOMEscan (ScanMAX) service
T4 sequence (P36897 34-503): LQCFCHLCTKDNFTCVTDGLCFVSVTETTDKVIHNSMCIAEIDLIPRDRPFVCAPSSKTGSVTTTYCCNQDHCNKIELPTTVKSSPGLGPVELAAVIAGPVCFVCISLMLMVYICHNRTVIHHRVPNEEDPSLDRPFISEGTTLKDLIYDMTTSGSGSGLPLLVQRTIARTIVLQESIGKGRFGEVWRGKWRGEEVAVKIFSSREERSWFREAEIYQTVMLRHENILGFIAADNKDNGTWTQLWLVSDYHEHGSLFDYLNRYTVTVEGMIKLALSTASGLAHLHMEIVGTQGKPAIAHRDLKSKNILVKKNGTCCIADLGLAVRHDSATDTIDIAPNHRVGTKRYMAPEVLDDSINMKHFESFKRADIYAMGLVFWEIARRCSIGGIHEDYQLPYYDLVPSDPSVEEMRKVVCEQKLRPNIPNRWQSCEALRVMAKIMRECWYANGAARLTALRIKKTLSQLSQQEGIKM

T3 sequence (P22607 23-806): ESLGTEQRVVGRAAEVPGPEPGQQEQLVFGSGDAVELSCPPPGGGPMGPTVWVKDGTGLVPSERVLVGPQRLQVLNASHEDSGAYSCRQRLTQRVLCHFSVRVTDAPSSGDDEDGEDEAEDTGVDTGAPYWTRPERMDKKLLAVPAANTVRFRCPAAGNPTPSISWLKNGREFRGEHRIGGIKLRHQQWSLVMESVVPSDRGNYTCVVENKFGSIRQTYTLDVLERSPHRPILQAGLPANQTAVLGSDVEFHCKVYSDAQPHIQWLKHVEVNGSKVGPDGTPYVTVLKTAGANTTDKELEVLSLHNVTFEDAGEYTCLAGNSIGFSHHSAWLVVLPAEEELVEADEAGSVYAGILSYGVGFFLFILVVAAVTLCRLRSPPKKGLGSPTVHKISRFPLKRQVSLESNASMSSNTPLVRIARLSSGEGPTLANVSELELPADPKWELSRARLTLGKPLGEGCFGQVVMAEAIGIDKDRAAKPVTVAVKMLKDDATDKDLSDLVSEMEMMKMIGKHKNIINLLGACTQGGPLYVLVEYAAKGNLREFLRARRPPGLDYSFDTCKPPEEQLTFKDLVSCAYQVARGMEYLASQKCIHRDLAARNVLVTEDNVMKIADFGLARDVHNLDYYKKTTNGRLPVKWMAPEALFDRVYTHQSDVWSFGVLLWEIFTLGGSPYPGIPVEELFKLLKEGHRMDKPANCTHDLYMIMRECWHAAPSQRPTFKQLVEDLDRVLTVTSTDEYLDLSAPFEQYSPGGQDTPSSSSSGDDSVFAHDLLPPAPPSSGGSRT

SMILES	remaining binding at 1 µM (panel of 468 kinases [1]) [%]	remaining binding at 1 µM (panel of 468 kinases [2]) [%]	remaining binding at 1 µM (panel of 468 kinases [3]) [%]	remaining binding at 1 µM (panel of 468 kinases [4]) [%]
CNc1nc(Nc2ccc(S(=O)(=O)N3CCC(N4CCOCC4)CC3)cc2OC)nc2[nH]cc(Cl)c12 [Compound 12, 5-chloro-N2-(2-methoxy-4-((4-morpholinopiperidin-1-yl)sulfonyl)phenyl)-N4-methyl-7H-pyrrolo[2,3-d]pyrimidine-2,4-diamine]	100	83	100	86
CNc1nc(Nc2ccc(P3(=O)CCN(C4CCOCC4)CC3)cc2OC)nc2[nH]cc(Cl)c12 [Compound 77, 4-(4-((5-chloro-4-(methylamino)-7H-pyrrolo[2,3-d]pyrimidin-2-yl)amino)-3-methoxyphenyl)-1-(tetrahydro-2H-pyran-4-yl)-1,4-azaphosphinane 4-oxide]	98	91	100	72
CNc1nc(Nc2ccc(C(=O)N3CCC(N4CCOCC4)CC3)c3c2OCO3)nc2[nH]cc(Cl)c12 [Compound 75, (7-((5-chloro-4-(methylamino)-7H-pyrrolo[2,3-d]pyrimidin-2-yl)amino)benzo[d][1,3]dioxol-4-yl)(4-morpholinopiperidin-1-yl)methanone]	100	83	98	68
